Entries after “also recorded” stand apart in the source; their conditions may differ.
How the values were obtained:
[1] = Clinical safety and tolerability, dose-limiting toxicities (NCT03536728); format: in vivo
Source text: Clinical Trial Outline. […] All solid tumor types are eligible for the trial. […] DFMO was delivered orally twice daily in gel capsules.
These DLTs involved vomiting, diarrhea and nausea, and inferred a potential dual drug targeting of the gastrointestinal (GI) tract in these patients. One patient experienced severe dehydration, requiring hospitalization. A similar observation was made in dogs in Aminex's 28-day toxicological testing. […] The clinical observations and the data obtained in dog studies, together, support the hypothesis that combined oral drug dosing levels and DFMO targeting of the GI tract are causing the intolerance.
In cohorts before Part 2, Cohort 4, 14 adults were treated at 1,200 mg or higher of AMXT 1501 daily, either once daily or BID, with no DLTs. A total of 18 patients were treated at 800 mg AMXT 1501 or higher daily with no DLTs. These patients included a couple of adult patients where Cmax values above 1,000 ng/mL AMXT 1501 plasma levels were observed, again with no DLTs observed.

[2] = Water solubility, bioavailability and Biopharmaceutics Classification System class; format: physicochemical; details: oral
Source text: Interim data for the pharmacokinetic (PK) behavior of both agents in human subjects has been generated.

CCCCCCCCCCCCCCCC(=O)NCCCC[C@@H](N)C(=O)NCCCNCCCCNCCCN [AMXT 1501 dicaprate]
clinical tolerability ([1]; oral 1,200 mg AMXT 1501 dicaprate alone, once daily or split BID): well tolerated clinically; also recorded: well-tolerated clinically
GI adverse effects on changing from once daily to twice daily (BID) delivery ([1]; patients, similar dose levels): greatly reduced; also recorded: substantially minimized
bioavailability [2]: low bioavailability

Source: patent US20230321012A1 (priority 2021, published 2023)
